The results in this text go back to patent US12281149B2, “Modulators of G-protein coupled receptors” (priority 2021, dated 2025).

The EC50 is the concentration giving half of the maximal effect. As a reminder, the Emax is the maximal effect, on the per cent scale that the assay sets.

Type in all cases: cell-based
Experiment [1] addresses T1, GLP-1 receptor (Homo sapiens, UniProt P43220). The experiment in a line: HitHunter cAMP assay, GLP-1 receptor. The following applies: for EC50: CHO cells stably expressing human GLP-1 receptor, cAMP accumulation, 30 min, read-out: EC50 GLP-1R; for Emax: CHO cells, cAMP, normalized to maximum signal from GLP-1 (high) and DMSO (low), read-out: Emax GLP-1R.
The target of experiment [2] is T2, GIP receptor (Homo sapiens, UniProt P48546).
T2 sequence (P48546 22-466): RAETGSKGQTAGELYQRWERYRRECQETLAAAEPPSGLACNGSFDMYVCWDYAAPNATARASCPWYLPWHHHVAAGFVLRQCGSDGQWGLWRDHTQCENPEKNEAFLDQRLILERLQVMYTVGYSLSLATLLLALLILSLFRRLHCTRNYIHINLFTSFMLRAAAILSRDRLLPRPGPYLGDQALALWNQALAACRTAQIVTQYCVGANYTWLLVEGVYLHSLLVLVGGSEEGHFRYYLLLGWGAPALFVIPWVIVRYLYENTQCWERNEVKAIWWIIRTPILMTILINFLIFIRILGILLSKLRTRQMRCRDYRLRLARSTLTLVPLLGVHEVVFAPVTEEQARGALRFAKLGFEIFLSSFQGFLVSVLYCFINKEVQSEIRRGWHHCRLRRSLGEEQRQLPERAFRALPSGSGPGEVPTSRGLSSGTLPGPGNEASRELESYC
Briefly: HitHunter cAMP assay, GIP receptor. The note with it: for EC50: CHO cells stably expressing GIP receptor, cAMP accumulation, 30 min, read-out: EC50 GIP-1R; for Emax: CHO cells, cAMP, normalized to maximum signal from GIP (high) and DMSO (low), read-out: Emax GIP-1R.

For experiment [3], the target named is T2, GIP receptor. Briefly: PathHunter β-arrestin assay, GIP receptor. Details: host or cells: PathHunter CHO-K1 GIPR β-Arrestin Cell Line. The note with it: β-arrestin-2 recruitment, PathHunter CHO-K1 GIPR β-Arrestin Cell Line, 90 min at 37° C.; normalized to GIP; read-out: GIPR β Arrestin EC50. In general terms: Activated receptors often draw arrestin, which recruitment assays turn into a signal.

Experiment [4] concerns the target T1, GLP-1 receptor. The experiment in a line: PathHunter β-arrestin assay, GLP-1 receptor. Details: host or cells: PathHunter CHO-K1 GLP1R β-Arrestin Cell Line. The note with it: β-arrestin-2 recruitment, PathHunter CHO-K1 GLP1R β-Arrestin Cell Line, 90 min at 37° C.; normalized to GLP-1; read-out: GLP-1R β Arrestin EC50.
Experimental: β-arrestin-2 recruitment for GLP-1 receptor or GIP receptor was measured using the DiscoverX PathHunter Detection Kit and PathHunter® CHO-K1 GLPIR β-Arrestin Cell Line or PathHunter® CHO-K1 GIPR β-Arrestin Cell Line, respectively). Briefly, cells were grown in Ham's F12 Nutrient Mix with 10% FBS and lifted with Cell dissociation buffer, Enzyme free, PBS based (ThermoFisher). Harvested cells were pelleted and resuspended in Assay Complete Cell Plating Reagent 2 and 5000 cells per well were plated in tissue culture treated 384-well small volume white assay plates. Plates were then incubated at 37° C. and 5% CO2 overnight. The media was then replaced with fresh Assay Complete Cell Plating Reagent 2. Cells were then treated with 10 nl compound in DMSO using an ECHO 550 acoustic dispenser (Labcyte) in a 20-point dose response format in duplicate for 90 min at 37° C. The assay was then completed according to the manufacturer's instructions. Luminescence was measured using a Perkin Elmer Envision plate reader. Raw data was normalized to the maximum signal from GLP-1 or GIP (high) and DMSO (low). Dose response curves were analyzed using GraphPad Prism 9.0.

The structures appear in SMILES notation. *1 amine or outer side, *2 acyl side, *3 side chain or, on linkers, in order; H or OH if unused. Where a SMILES comes first, the peptide text is derived from it. Side-chain parts run from the residue outwards. [ ]: non-standard residue; d: D form. The star is where a group is joined. Isobutyryl(2-(3-CN-5-F-Ph)) = CC(C)(C(=O)*)c1cc(F)cc(C#N)c1; C20 diacid = O=C(O)CCCCCCCCCCCCCCCCCCC(=O)*; X49 = O=C([C@H](CN[*:1])c1ccccc1)[*:2]; γGlu = O=C(O)[C@H](CCC(=O)[*:2])N[*:1]; X68 = CC(C)[C@@H](CN[*:1])C(=O)[*:2]; AEEA = NCCOCCOCC(=O)O; Aib = CC(C)(N)C(=O)O; βAla = NCCC(=O)O

T1 sequence (P43220 24-463): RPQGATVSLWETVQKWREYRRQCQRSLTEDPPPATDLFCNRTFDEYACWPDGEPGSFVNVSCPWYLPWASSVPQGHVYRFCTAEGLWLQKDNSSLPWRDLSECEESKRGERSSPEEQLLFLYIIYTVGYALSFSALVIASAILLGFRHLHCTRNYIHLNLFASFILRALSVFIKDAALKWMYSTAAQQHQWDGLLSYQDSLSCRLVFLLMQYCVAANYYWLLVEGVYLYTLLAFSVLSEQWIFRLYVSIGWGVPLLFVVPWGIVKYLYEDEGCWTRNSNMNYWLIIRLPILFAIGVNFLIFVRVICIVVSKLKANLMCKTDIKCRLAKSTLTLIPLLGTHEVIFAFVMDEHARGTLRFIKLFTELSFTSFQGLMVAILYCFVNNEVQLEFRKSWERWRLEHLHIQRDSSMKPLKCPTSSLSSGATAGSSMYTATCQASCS

Turning to `CC[C@H](C)[C@H](NC(=O)[C@H](CO)NC(=O)[C@H](CCCCNC(=O)COCCOCCNC(=O)COCCOCCNC(=O)CC[C@H](NC(=O)CCCCCCCCCCCCCCCCCCC(=O)O)C(=O)O)NC(=O)[C@H](CC(=O)O)NC(=O)[C@H](CO)NC(=O)[C@@H](NC(=O)[C@H](Cc1ccccc1)NC(=O)[C@@H](NC(=O)CNC(=O)[C@H](CCC(=O)O)NC(=O)CCNC(=O)C(C)(C)c1cc(F)cc(C#N)c1)[C@@H](C)O)[C@@H](C)O)C(=O)N[C@@H](Cc1ccc(O)cc1)C(=O)N[C@@H](CC(C)C)C(=O)N[C@@H](CC(=O)O)C(=O)N[C@@H](CCCCN)C(=O)N[C@@H](CCC(N)=O)C(=O)N[C@@H](C)C(=O)N[C@@H](C)C(=O)NC(C)(C)C(=O)N[C@@H](CCC(=O)O)C(=O)N[C@@H](Cc1ccccc1)C(=O)N[C@H](C(=O)N[C@@H](CC(N)=O)C(=O)N[C@@H](Cc1c[nH]c2ccccc12)C(=O)N[C@@H](CC(C)C)C(=O)N[C@@H](CC(C)C)C(=O)N[C@@H](C)C(=O)NCC(=O)NCC(=O)N1CCC[C@H]1C(=O)N[C@@H](CO)C(=O)N[C@@H](CO)C(=O)NCC(=O)N[C@@H](C)C(=O)N1CCC[C@H]1C(=O)N1CCC[C@H]1C(=O)N1CCC[C@H]1C(=O)N[C@@H](CO)C(N)=O)C(C)C` [Compound 167] ({Isobutyryl(2-(3-CN-5-F-Ph))-βAla}-EGTFTSDK([AEEA-AEEA-γGlu-C20 diacid])SIYLDKQAA[Aib]EFVNWLLAGGPSSGAPPPS-NH2), the 50% effective concentration (EC50) is 0.1 to 1 nM on GLP-1 receptor [1], 10 to 100 nM on GIP receptor [2], greater than 1000 nM at GIP receptor [3] and greater than 1000 nM on GLP-1 receptor [4]. Moreover, the Emax at GLP-1 receptor [1] came to 108%; at GIP receptor [2], 91%.
For the molecule `CC[C@H](C)[C@H](NC(=O)[C@H](CC(C)C)NC(=O)[C@H](Cc1c[nH]c2ccccc12)NC(=O)[C@H](CCC(N)=O)NC(=O)[C@@H](NC(=O)[C@H](Cc1ccccc1)NC(=O)[C@H](C)NC(=O)[C@H](CCCCNC(=O)COCCOCCNC(=O)COCCOCCNC(=O)CC[C@H](NC(=O)CCCCCCCCCCCCCCCCCCC(=O)O)C(=O)O)NC(=O)[C@H](CCC(N)=O)NC(=O)[C@H](C)NC(=O)[C@@H](NC(=O)[C@H](CCCCN)NC(=O)[C@H](CC(=O)O)NC(=O)[C@H](CC(C)C)NC(=O)C(C)(C)NC(=O)[C@@H](NC(=O)[C@H](CO)NC(=O)[C@H](Cc1ccc(O)cc1)NC(=O)[C@H](CC(=O)O)NC(=O)[C@H](CO)NC(=O)[C@H](C)NC(=O)[C@H](Cc1ccccc1)NC(=O)[C@@H](NC(=O)CNC(=O)[C@H](CCC(=O)O)NC(=O)CCNC(=O)C(C)(C)c1cc(F)cc(C#N)c1)[C@@H](C)O)[C@@H](C)CC)[C@@H](C)CC)C(C)C)C(=O)N[C@@H](C)C(=O)NCC(=O)NCC(=O)N1CCC[C@H]1C(=O)N[C@@H](CO)C(=O)N[C@@H](CO)C(=O)NCC(=O)N[C@@H](C)C(=O)N1CCC[C@H]1C(=O)N1CCC[C@H]1C(=O)N1CCC[C@H]1C(=O)N[C@@H](CO)C(N)=O` [Compound 168] ({Isobutyryl(2-(3-CN-5-F-Ph))-βAla}-EGTFASDYSI[Aib]LDKIAQK([AEEA-AEEA-γGlu-C20 diacid])AFVQWLIAGGPSSGAPPPS-NH2), the 50% effective concentration (EC50) on GLP-1 receptor [1] is 10 to 100 nM; on GIP receptor [2] it was 1 to 10 nM; at GIP receptor [3], less than 1000 nM; at GLP-1 receptor [4] it was greater than 1000 nM. Besides, the maximum response (Emax) on GLP-1 receptor [1] was 87%; on GIP receptor [2] it was 112%.
For the molecule `CC[C@H](C)[C@H](NC(=O)[C@H](CC(C)C)NC(=O)[C@H](Cc1c[nH]c2ccccc12)NC(=O)[C@H](CCC(N)=O)NC(=O)[C@@H](NC(=O)[C@H](Cc1ccccc1)NC(=O)[C@H](C)NC(=O)[C@H](CCCCNC(=O)COCCOCCNC(=O)COCCOCCNC(=O)CC[C@H](NC(=O)CCCCCCCCCCCCCCCCCCC(=O)O)C(=O)O)NC(=O)[C@H](CCC(N)=O)NC(=O)[C@H](C)NC(=O)[C@@H](NC(=O)[C@H](CCCCN)NC(=O)[C@H](CC(=O)O)NC(=O)[C@H](CC(C)C)NC(=O)C(C)(C)NC(=O)[C@@H](NC(=O)[C@H](CO)NC(=O)[C@H](Cc1ccc(O)cc1)NC(=O)[C@H](CC(=O)O)NC(=O)[C@H](CO)NC(=O)[C@@H](NC(=O)[C@H](Cc1ccccc1)NC(=O)[C@@H](NC(=O)CNC(=O)[C@H](CCC(=O)O)NC(=O)CCNC(=O)C(C)(C)c1cc(F)cc(C#N)c1)[C@@H](C)O)[C@@H](C)O)[C@@H](C)CC)[C@@H](C)CC)C(C)C)C(=O)N[C@@H](C)C(=O)NCC(=O)NCC(=O)N1CCC[C@H]1C(=O)N[C@@H](CO)C(=O)N[C@@H](CO)C(=O)NCC(=O)N[C@@H](C)C(=O)N1CCC[C@H]1C(=O)N1CCC[C@H]1C(=O)N1CCC[C@H]1C(=O)N[C@@H](CO)C(=O)O` [Compound 169] ({Isobutyryl(2-(3-CN-5-F-Ph))-βAla}-EGTFTSDYSI[Aib]LDKIAQK([AEEA-AEEA-γGlu-C20 diacid])AFVQWLIAGGPSSGAPPPS-OH), the EC50 is 0.1 to 1 nM on GLP-1 receptor [1], 1 to 10 nM at GIP receptor [2], less than 1000 nM on GIP receptor [3] and greater than 1000 nM at GLP-1 receptor [4]. For the same molecule, the results for the Emax on GLP-1 receptor [1] and on GIP receptor [2] were 108% and 110%, respectively.
For `CC[C@H](C)[C@H](NC(=O)[C@H](CC(C)C)NC(=O)[C@H](Cc1c[nH]c2ccccc12)NC(=O)[C@H](CCC(N)=O)NC(=O)[C@@H](NC(=O)[C@H](Cc1ccccc1)NC(=O)[C@H](C)NC(=O)[C@H](CCCCNC(=O)COCCOCCNC(=O)COCCOCCNC(=O)CC[C@H](NC(=O)CCCCCCCCCCCCCCCCCCC(=O)O)C(=O)O)NC(=O)[C@H](CCC(N)=O)NC(=O)[C@H](C)NC(=O)[C@@H](NC(=O)[C@H](CCCCN)NC(=O)[C@H](CC(=O)O)NC(=O)[C@H](CC(C)C)NC(=O)C(C)(C)NC(=O)[C@@H](NC(=O)[C@H](CO)NC(=O)[C@H](Cc1ccc(O)cc1)NC(=O)[C@H](CC(=O)O)NC(=O)[C@H](CO)NC(=O)[C@@H](NC(=O)[C@H](Cc1ccccc1)NC(=O)[C@@H](NC(=O)CNC(=O)[C@H](CCC(=O)O)NC(=O)[C@H](CNC(=O)C(C)(C)c1cc(F)cc(C#N)c1)c1ccccc1)[C@@H](C)O)[C@@H](C)O)[C@@H](C)CC)[C@@H](C)CC)C(C)C)C(=O)N[C@@H](C)C(=O)NCC(=O)NCC(=O)N1CCC[C@H]1C(=O)N[C@@H](CO)C(=O)N[C@@H](CO)C(=O)NCC(=O)N[C@@H](C)C(=O)N1CCC[C@H]1C(=O)N1CCC[C@H]1C(=O)N1CCC[C@H]1C(=O)N[C@@H](CO)C(N)=O` [Compound 170] ({Isobutyryl(2-(3-CN-5-F-Ph))}-[X49]EGTFTSDYSI[Aib]LDKIAQK([AEEA-AEEA-γGlu-C20 diacid])AFVQWLIAGGPSSGAPPPS-NH2), the concentration for a half-maximal effect (EC50) at GLP-1 receptor [1] is 100 to 1000 nM; at GIP receptor [2] it was 100 to 1000 nM; on GIP receptor [3], greater than 1000 nM; on GLP-1 receptor [4], greater than 1000 nM. In addition, the Emax came out at 57% at GLP-1 receptor [1] and 37% at GIP receptor [2].
For `CC[C@H](C)[C@H](NC(=O)[C@H](CC(C)C)NC(=O)[C@H](Cc1c[nH]c2ccccc12)NC(=O)[C@H](CCC(N)=O)NC(=O)[C@@H](NC(=O)[C@H](Cc1ccccc1)NC(=O)[C@H](C)NC(=O)[C@H](CCCCNC(=O)COCCOCCNC(=O)COCCOCCNC(=O)CC[C@H](NC(=O)CCCCCCCCCCCCCCCCCCC(=O)O)C(=O)O)NC(=O)[C@H](CCC(N)=O)NC(=O)[C@H](C)NC(=O)[C@@H](NC(=O)[C@H](CCCCN)NC(=O)[C@H](CC(=O)O)NC(=O)[C@H](CC(C)C)NC(=O)C(C)(C)NC(=O)[C@@H](NC(=O)[C@H](CO)NC(=O)[C@H](Cc1ccc(O)cc1)NC(=O)[C@H](CC(=O)O)NC(=O)[C@H](CO)NC(=O)[C@@H](NC(=O)[C@H](Cc1ccccc1)NC(=O)[C@@H](NC(=O)CNC(=O)[C@H](CCC(=O)O)NC(=O)[C@H](CNC(=O)C(C)(C)c1cc(F)cc(C#N)c1)C(C)C)[C@@H](C)O)[C@@H](C)O)[C@@H](C)CC)[C@@H](C)CC)C(C)C)C(=O)N[C@@H](C)C(=O)NCC(=O)NCC(=O)N1CCC[C@H]1C(=O)N[C@@H](CO)C(=O)N[C@@H](CO)C(=O)NCC(=O)N[C@@H](C)C(=O)N1CCC[C@H]1C(=O)N1CCC[C@H]1C(=O)N1CCC[C@H]1C(=O)N[C@@H](CO)C(N)=O` [Compound 171] ({Isobutyryl(2-(3-CN-5-F-Ph))}-[X68]EGTFTSDYSI[Aib]LDKIAQK([AEEA-AEEA-γGlu-C20 diacid])AFVQWLIAGGPSSGAPPPS-NH2), the EC50 at GLP-1 receptor [1] was 10 to 100 nM; on GIP receptor [2] it was 100 to 1000 nM; at GIP receptor [3], greater than 1000 nM; at GLP-1 receptor [4], greater than 1000 nM. Further, the maximal response (Emax) worked out at 109% on GLP-1 receptor [1] and 94% on GIP receptor [2].
